This note sets out measurements from patent US9593108B2, “Compounds and methods for antiviral treatment” (PTC Therapeutics, Inc., priority 2009, dated 2017).

SMILES strings stand for the structures. Bounds are passed on as bounds.

In general, IC50 refers to the concentration that gives 50% inhibition. Read a high IC50 as weaker potency. For orientation: melting point means the temperature of the solid-liquid transition.

In data set [1] the test system is HCV replicon RNA (GenBank Accession No. AJ242654). Kind of data set: HCV Replicon Assay (replicon RNA reduction and/or Fluc reporter signal). It counts as cell-based, Hepatitis C virus. The conditions noted are these: Hepatitis C virus, 72 h, replicon-containing cells cultured with test compound for up to 3 days. The gist of the method:
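Bicistronic replicon-containing cells cultured with compound for up to 3 days, with interferon as positive control. Inhibition quantified by replicon RNA reduction and/or Fluc reporter signal; IC50 values generally derived from replicon RNA reduction.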

Turning to `C[C@H](NS(=O)(=O)c1ccc(-c2c(C#N)c3cc(C#N)cnc3n2C2CCC2)cc1)C(F)(F)F` [Cpd 110, 4-(3,5-dicyano-1-cyclobutyl-1H-pyrrolo[2,3-b]pyridin-2-yl)-N-[(2S)-1,1,1-trifluoropropan-2-yl]benzenesulfonamide], the melting point was 241 to 243 °C. In data set [1], this compound came in with an IC50 of less than 500 nM.
For the compound `CCn1c(-c2ccc(S(=O)(=O)N[C@@H](C)C(F)(F)F)cc2)c(C#N)c2cc(C)cnc21` [Cpd 484, 4-(3-cyano-1-ethyl-5-methyl-1H-pyrrolo[2,3-b]pyridin-2-yl)-N-[(2S)-1,1,1-trifluoropropan-2-yl]benzenesulfonamide], the melting point was 147 to 152 °C. Besides, the IC50 in data set [1] is 500 to 2000 nM.
For `CSc1cnc2c(c1)c(C(N)=O)c(-c1ccc(NS(=O)(=O)C(C)(C)C)cc1)n2C1CCC1` [Cpd 387, 2-{4-[(tert-butylsulfonyl)amino]phenyl}-1-cyclobutyl-5-(methylsulfanyl)-1H-pyrrolo[2,3-b]pyridine-3-carboxamide], in that order: 240 to 241 °C and less than 500 nM.
The corresponding values for `C[C@H](NS(=O)(=O)c1ccc(-c2c(C#N)c3ccc(OC(F)F)nc3n2C2CCC2)nc1)C(F)(F)F` [Cpd 54, 6-[3-cyano-1-cyclobutyl-6-(difluoromethoxy)-1H-pyrrolo[2,3-b]pyridin-2-yl]-N-[(2S)-1,1,1-trifluoropropan-2-yl]pyridine-3-sulfonamide] are 176 to 177 °C and less than 500 nM.
The corresponding values for `CCOc1cnc2c(c1)c(C#N)c(-c1ccc(S(=O)(=O)N[C@@H](C)C(F)(F)F)cn1)n2C1CCC1` [Cpd 202, 6-(3-cyano-1-cyclobutyl-5-ethoxy-1H-pyrrolo[2,3-b]pyridin-2-yl)-N-[(2S)-1,1,1-trifluoropropan-2-yl]pyridine-3-sulfonamide] are 181 to 182 °C and less than 500 nM.
`CCCOc1cnc2c(c1)c(C#N)c(-c1ccc(S(=O)(=O)N[C@H](C)C(F)(F)F)cn1)n2C1CCC1` [Cpd 205, 6-(3-cyano-1-cyclobutyl-5-propoxy-1H-pyrrolo[2,3-b]pyridin-2-yl)-N-[(2R)-1,1,1-trifluoropropan-2-yl]pyridine-3-sulfonamide] returned a melting point of 169 to 170 °C. The same compound registered an IC50 in data set [1] of less than 500 nM.
For `Cc1nc(-c2c(C#N)c3cc(C(F)(F)F)cnc3n2C2CCC2)ccc1S(=O)(=O)N[C@@H](C)C(F)(F)F` [Cpd 338, 6-[3-cyano-1-cyclobutyl-5-(trifluoromethyl)-1H-pyrrolo[2,3-b]pyridin-2-yl]-2-methyl-N-[(2S)-1,1,1-trifluoropropan-2-yl]pyridine-3-sulfonamide], in that order: 162 to 165 °C and less than 500 nM.
For `Cc1ccc2c(C#N)c(-c3ccc(S(=O)(=O)NC4(C(F)(F)F)CC4)cc3)n(C3CCC3)c2n1` [Cpd 140, 4-(3-cyano-1-cyclobutyl-6-methyl-1H-pyrrolo[2,3-b]pyridin-2-yl)-N-[1-(trifluoromethyl)cyclopropyl]benzenesulfonamide], in that order: 205 to 212 °C and 500 to 2000 nM.
For `Cc1cnc2c(c1)c(C#N)c(-c1ccc(S(=O)(=O)N[C@H](C)C(F)(F)F)cc1)n2C1CCCC1` [Cpd 262, 4-(3-cyano-1-cyclopentyl-5-methyl-1H-pyrrolo[2,3-b]pyridin-2-yl)-N-[(2R)-1,1,1-trifluoropropan-2-yl]benzenesulfonamide], in that order: 189 to 195 °C and less than 500 nM.
`COc1cnc2c(c1)c(C#N)c(-c1cc(C)c(S(=O)(=O)N[C@@H](C)C(F)(F)F)cn1)n2C1CCC1` [Cpd 277, 6-(3-cyano-1-cyclobutyl-5-methoxy-1H-pyrrolo[2,3-b]pyridin-2-yl)-4-methyl-N-[(2S)-1,1,1-trifluoropropan-2-yl]pyridine-3-sulfonamide] displayed a melting point of 175 to 179 °C. This compound had a concentration for half-maximal inhibition (IC50) in data set [1] of less than 500 nM.
In turn, `CC(C)(C)NS(=O)(=O)c1ccc(-c2c(C#N)c3cc(F)cnc3n2-c2ccccn2)nc1` [Cpd 522, N-tert-butyl-6-[3-cyano-5-fluoro-1-(pyridin-2-yl)-1H-pyrrolo[2,3-b]pyridin-2-yl]pyridine-3-sulfonamide] returned a melting point of 202.2 to 204.3 °C. The compound also had an IC50 in data set [1] of less than 500 nM.
For `N#Cc1cnc2c(c1)c(C#N)c(-c1ccc(S(=O)(=O)NC3(C(F)(F)F)CC3)cn1)n2C1CCC1` [Cpd 111, 6-(3,5-dicyano-1-cyclobutyl-1H-pyrrolo[2,3-b]pyridin-2-yl)-N-[1-(trifluoromethyl)cyclopropyl]pyridine-3-sulfonamide], in that order: 207 to 208 °C and less than 500 nM.
The corresponding values for `C[C@@H](NS(=O)(=O)c1ccc(-c2c(C#N)c3cc(C4CC4)cnc3n2C2CCC2)cc1)C(F)(F)F` [Cpd 116, 4-(3-cyano-1-cyclobutyl-5-cyclopropyl-1H-pyrrolo[2,3-b]pyridin-2-yl)-N-[(2R)-1,1,1-trifluoropropan-2-yl]benzenesulfonamide] are 190 to 195 °C and less than 500 nM.
The corresponding values for `COc1cnc2c(c1)c(C#N)c(-c1ncc(S(=O)(=O)N[C@@H](C)C(F)(F)F)cc1C)n2C1CCC1` [Cpd 292, 6-(3-cyano-1-cyclobutyl-5-methoxy-1H-pyrrolo[2,3-b]pyridin-2-yl)-5-methyl-N-[(2S)-1,1,1-trifluoropropan-2-yl]pyridine-3-sulfonamide] are 180 to 183 °C and less than 500 nM.
Compound `Cc1cc2c(cn1)c(C#N)c(-c1ncc(S(=O)(=O)NC(C)C)cn1)n2C1CCC1` [Cpd 32, 2-(3-cyano-1-cyclobutyl-6-methyl-1H-pyrrolo[3,2-c]pyridin-2-yl)-N-(propan-2-yl)pyrimidine-5-sulfonamide] returned a melting point of 242 to 243 °C. In data set [1], this compound yielded an IC50 of less than 500 nM.
For `C[C@H](NS(=O)(=O)c1cnc(-c2c(C(N)=O)c3cc(C(F)F)cnc3n2C2CCC2)nc1)C(F)(F)F` [Cpd 470, 1-cyclobutyl-5-(difluoromethyl)-2-(5-{[(2S)-1,1,1-trifluoropropan-2-yl]sulfamoyl}pyrimidin-2-yl)-1H-pyrrolo[2,3-b]pyridine-3-carboxamide], in that order: 199 to 201 °C and less than 500 nM.
For `C[C@@H](NS(=O)(=O)c1ccc(-c2c(C#N)c3ccc(C4CC4)nc3n2C2CCC2)nc1)C(F)(F)F` [Cpd 152, 6-(3-cyano-1-cyclobutyl-6-cyclopropyl-1H-pyrrolo[2,3-b]pyridin-2-yl)-N-[(2R)-1,1,1-trifluoropropan-2-yl]pyridine-3-sulfonamide], in that order: 170 to 176 °C and less than 500 nM.
The corresponding values for `Cc1cnc2c(C#N)c(-c3ccc(S(=O)(=O)N[C@@H](C)C(F)(F)F)cn3)n(C3CCC3)c2c1` [Cpd 206, 6-(3-cyano-1-cyclobutyl-6-methyl-1H-pyrrolo[3,2-b]pyridin-2-yl)-N-[(2S)-1,1,1-trifluoropropan-2-yl]pyridine-3-sulfonamide] are 217 to 218 °C and 500 to 2000 nM.
For `CC(C)(C)S(=O)(=O)Nc1ccc(-c2c(C(N)=O)c3cc(C(F)(F)F)cnc3n2C2CCC2)cc1` [Cpd 404, 2-{4-[(tert-butylsulfonyl)amino]phenyl}-1-cyclobutyl-5-(trifluoromethyl)-1H-pyrrolo[2,3-b]pyridine-3-carboxamide], the melting point was 257 to 259 °C. This compound also displayed an IC50 in data set [1] of less than 500 nM.
The corresponding values for `C[C@H](NS(=O)(=O)c1ccc(-c2c(C(N)=O)c3cc(C(F)(F)F)cnc3n2C2CCCCC2)cc1)C(F)(F)F` [Cpd 437, 1-cyclohexyl-5-(trifluoromethyl)-2-(4-{[(2S)-1,1,1-trifluoropropan-2-yl]sulfamoyl}phenyl)-1H-pyrrolo[2,3-b]pyridine-3-carboxamide] are 291 to 293 °C and less than 500 nM.
The corresponding values for `C[C@H](NS(=O)(=O)c1ccc(-c2c(C#N)c3cc(Cl)cnc3n2CC2CC2)nc1)C(F)(F)F` [Cpd 63, 6-[5-chloro-3-cyano-1-(cyclopropylmethyl)-1H-pyrrolo[2,3-b]pyridin-2-yl]-N-[(2S)-1,1,1-trifluoropropan-2-yl]pyridine-3-sulfonamide] are 226 to 227 °C and less than 500 nM.
Take `COc1cnc2c(c1)c(C#N)c(-c1ncc(S(=O)(=O)NC3(C)CC3)cn1)n2C1CCC1` [Cpd 313, 2-(3-cyano-1-cyclobutyl-5-methoxy-1H-pyrrolo[2,3-b]pyridin-2-yl)-N-(1-methylcyclopropyl)pyrimidine-5-sulfonamide]: the melting point is 209 to 212 °C. In data set [1], this compound showed an IC50 of less than 500 nM.
For `N#Cc1c(-c2ccc(NS(=O)(=O)C3CC3)cc2)n(C2CCC2)c2ncc(C(F)F)cc12` [Cpd 460, N-{4-[3-cyano-1-cyclobutyl-5-(difluoromethyl)-1H-pyrrolo[2,3-b]pyridin-2-yl]phenyl}cyclopropanesulfonamide], in that order: 193 to 195 °C and less than 500 nM.
The corresponding values for `C[C@H](NS(=O)(=O)c1ccc(-c2c(C#N)c3cc(C(F)F)cnc3n2C2CCC2)nc1)C(F)(F)F` [Cpd 452, 6-[3-cyano-1-cyclobutyl-5-(difluoromethyl)-1H-pyrrolo[2,3-b]pyridin-2-yl]-N-[(2S)-1,1,1-trifluoropropan-2-yl]pyridine-3-sulfonamide] are 158 to 159 °C and less than 500 nM.
In the case of `Cc1cc(-c2c(C#N)c3cc(Cl)cnc3n2C2CCCC2)ncc1S(=O)(=O)N[C@@H](C)C(F)(F)F` [Cpd 278, 6-(5-chloro-3-cyano-1-cyclopentyl-1H-pyrrolo[2,3-b]pyridin-2-yl)-4-methyl-N-[(2S)-1,1,1-trifluoropropan-2-yl]pyridine-3-sulfonamide], the melting point was 190 to 195 °C. This compound also displayed an IC50 in data set [1] of less than 500 nM.
